Data on one substance can be found in US8173131B2, “Compositions and methods for modulating RSV infection and immunity” (PerkinElmer Health Sciences, Inc., priority 2000, dated 2012).

For assay [1], the system named is G glycoprotein binding to 293-CX3CR1 cells. Set-up: species or system human. The settings on record: heparin 5 μg/ml alone. As to the method:
All binding studies were done on ice and either G glycoprotein or human Fkn (R&D Diagnostics, Minneapolis, Minn.) were diluted between 1 nM-100 nM in PBS (GIBCO) containing 1% bovine serum albumin (Sigma) and incubated with the 293-CX3CR1 cells or 293 control cells for 30 min at 4° C. […] Without washing, 100 pM of either Fkn or G glycoprotein was added and incubated for 30 min at 4° C. The cells were washed, blocked with FcγRIII blocking antibody (HB197) for 30 min on ice, washed and stained as appropriate with either an anti-G glycoprotein monoclonal antibody cocktail (132-5B, 132-5G, 130-2G, 232-IF) or a biotinylated anti-G glycoprotein monoclonal antibody cocktail (130-2G, 131-2G) or anti-Fkn monoclonal antibody (51637.11; R&D Diagnostics). Concentrations of 1 μg of anti-G glycoprotein monoclonal antibody (131-2G)^34, rabbit anti-CX3CR1 sera^33, and anti-CX3CR1 monoclonal antibody containing 10 μg/ml heparin were used in all experiments. […] Staining was detected with absorbed FITC-goat anti-mouse (H & L chain) monoclonal antibody (PharMingen, San Diego, Calif.) or streptavidin-PE (PharMingen) using flow cytometry (FACScan, Becton-Dickinson, Mountain View, Calif.). A 76 amino acid ^125I-Fkn polypeptide comprising the […] (NEN, Boston, Mass.) was used in radioligand studies^33. As a control, the void volume following purified G glycoprotein passaged over an anti-G glycoprotein antibody (130-2G) affinity column was examined by flow cytometry for binding to either 293 or 293-CX3CR1 cells.
For peptide inhibition studies, a series of G glycoprotein peptides were identified in the amino acid sequence of the A2 strain of RSV (GENBANK, attachment protein locus 1912305, Table 4). The peptides were synthesized using a simultaneous, multiple solid-phase peptide synthesis method on a peptide synthesizer (Perkin-Elmer Applied Biosystems, Berkeley, Calif.), and tested for homogeneity by reverse-phase liquid chromatography and capillary electrophoresis (www.biotech.cdc.gov/protein/methods). Inhibition assays were performed as described for the binding studies above.
To determine if G glycoprotein bound 293-CX3CR1 cells via CX3CR1, the ability of four reagents (anti-CX3CR1 rabbit antiserum, anti-CX3CR1 monoclonal antibody (2A9-1), Fkn and a 76 amino acid 125-I-Fkn polypeptide containing the CX3C domain) that bind to CX3CR1 to block G glycoprotein binding to 293-CX3CR1 cells was examined. In addition, to determine if binding of G glycoprotein to 293-CX3CR1 cells was dependent upon the CX3C motif, G glycoprotein peptides with a single residue insertion (Δ+1) or deletion (Δ−1) in the CX3C motif and also peptides that lacked or included the CX3C motif (Table 4) were generated. This panel of peptides was analyzed for their ability to block G glycoprotein or Fkn binding to 293-CX3CR1 cells.
Inhibition of Fkn and G glycoprotein binding to 293-CX3CR1 cells by treatment with monoclonal antibodies to G glycoprotein or CX3CR1, or treatment with G glycoprotein, Fkn, or G glycoprotein peptides in the presence or absence of heparin as described in Methods. […] The concentration of G glycoprotein was estimated using a molecular weight of 90 kD.

Assay [2] deals with RSV. The experiment in a line: RSV plaque reduction by small molecule peptide inhibitors on Vero cells (Example II). Format: cell-based, RSV/A2. The conditions noted are these: heparin alone, 5 μg/ml. On the procedure:
Vero cells were treated with PBS, RT33, RT34, Δ+1, Δ−1 and EYp1 peptides (100 μm) in the presence (B) or absence of heparin (A) (5 μg/ml). Percentage inhibition was determined by dividing the mean plaque forming units (PFU) of treated Vero cells by the mean PFU of PBS-treated Vero cells.
Different concentrations of the G glycoprotein peptides and/or 5 μg/ml heparin (Sigma) were diluted in Dulbecco's phosphate buffered saline (D-PBS; GIBCO) and added to Vero cell monolayers for 1 h at 37° C. Pre-treated Vero cells were infected with 10^6 PFU of RSV/A2 diluted in serum-free DMEM (GIBCO) for 2 h at 37° C., after which DMEM (GIBCO) containing 10% FBS (Hyclone, Logan, Utah) was added, and the infected cells incubated at 37° C. for 3-4 days. Plaques were enumerated by immunostaining with monoclonal antibodies against the G and F glycoproteins (130-2G and 131-2A, respectively), as described (54,55).

Assay [3] concerns RSV. The experiment in a line: RSV plaque reduction assay on Vero cells (Example 1). The conditions noted are these: 5 μg/ml. The assay is classed as cell-based, RSV/A2. On the procedure: Dilutions of Fkn (R&D systems), SDF-1 α (R&D systems), G glycoprotein, heparin (Sigma), G glycoprotein peptides and anti-CX3CR1 antibody were made in serum-free Dulbecco's Modified Eagle's Media (DMEM; GIBCO) containing 1% BSA (Sigma) and preincubated with the Vero cells for 1 h at 37° C. 50 μg of anti-CX3CR1 antibody or heat-inactivated (56° C., 30 min) normal rabbit sera (control) were used in all experiments. […] Dilutions of RSV were made in serum-free DMEM (GIBCO) and added to pretreated Vero cells for 2 h at 37° C. Following virus infection, DMEM (GIBCO) containing 10% FBS (Hyclone, Logan, Utah) was added to the wells. Plaques were enumerated using immunostaining for F and G glycoproteins using biotinylated monoclonal antibodies 131-2A (anti-F glycoprotein) and 130-2G (anti-G glycoprotein) as described^45.
RSV plaque reduction following treatment with G glycoprotein, Fkn, G glycoprotein peptides, anti-CX3CR1 antibody, SDF-1-α and/or heparin as described in Methods. Percent inhibition was determined from the mean plaque forming units (pfu) of treated Vero cells over saline-treated Vero cells using a dilution of RSV that would produce 40-80 pfu. p-values were determined using unpaired two-tailed analysis where p<0.05 is significant. The concentration of G glycoprotein was estimated using a molecular weight of 90 kD.
Background: In a plaque reduction assay, fewer plaques than in the control indicate reduced infectivity or spread.

Assay [4] concerns the target T1, Fkn binding to 293-CX3CR1 cells (Homo sapiens, UniProt P49238).
T1 construct: host or cells: HEK 293 cells stably transfected with CX3CR1
The settings on record: heparin 5 μg/ml alone.

T1 sequence (P49238 whole entry): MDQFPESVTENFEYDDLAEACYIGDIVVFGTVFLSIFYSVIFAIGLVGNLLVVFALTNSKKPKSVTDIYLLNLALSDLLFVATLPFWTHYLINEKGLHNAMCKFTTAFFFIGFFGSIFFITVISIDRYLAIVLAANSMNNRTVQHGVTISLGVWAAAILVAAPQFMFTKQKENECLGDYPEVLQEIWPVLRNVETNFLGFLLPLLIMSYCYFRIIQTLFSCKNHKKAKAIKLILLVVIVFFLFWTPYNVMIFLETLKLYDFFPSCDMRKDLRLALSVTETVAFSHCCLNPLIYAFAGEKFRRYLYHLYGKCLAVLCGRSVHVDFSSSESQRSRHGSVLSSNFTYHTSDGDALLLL

For the substance Heparin [reference compound], in assay [1], the “Range of Inhibition (%) of G glycoprotein binding” value is listed as 78-84%. For the same substance, the “inhibition of plaque formation” value in assay [2] is 80%. Also, the “plaque inhibition (%)” value in assay [3] stood at 66%. In addition, in assay [4], the “Range of Inhibition (%) of Fkn binding” value was 57-65%.
